Like-named read-outs stand apart in the source and are kept apart here.
Experiments:
gray mold of cucumber = assay: Spawn growth rate on agar plates (Embodiment 9); format: cell-based, Botrytis cinerea; conditions: 48 h; for inhibition of growth at 100 µg/g: testing concentration of 100 μg/g, read-out: Gray mold of cucumber Average inhibition rate (%)
tobacco brown spot = assay: microbe, parasite or virus in culture; format: cell-based, Alternaria alternate (Fries) Keissler; conditions: 48 h, testing concentration of 100 μg/g; Table 4; read-out: Tobacco brown spot Average inhibition rate (%)
Downy Mildew of Cucumber = assay: Microbicidal activity on cucumber seedlings, spray then spore inoculation (Embodiment 8); conditions: for pest or weed control at 500 µg/g: Cucumis sativus, read-out: Downy Mildew of Cucumber Average inhibition rate (%)
Method: (§1) (Pseudomonassyringaepv. tomato (Okabe) Young, Dye & Wilkie), Cucumber Angular Leaf Spot, Rice Sheath Blight Disease (Rhizoctonia solani), Corynespora Leaf Spot of Cucumber (Corynespora cassiicola), Downy Mildew of Cucumber (Cucumber Downy Mildew).
(§2) Testing agents and control agents were sprayed uniformly at A.M. of a sunshine day on the cucumber seminal leaves. After 2 hours, the leaves were inoculated with pathogenic microbes and cultured at humidity. […] Strip inoculation is used for Rice Sheath Blight Disease and phytophthora blight of pepper, in which the liquor was sprayed and after 2 hours, inoculation of strips was performed followed by culturing at humidity. After full occurrence of diseases in the control group, state of illness was examined according to grading standards, and a disease index and inhibition rate were calculated.

[1] = tested on: Rice Sheath Blight Disease; assay: Microbicidal activity, spray then strip inoculation (Embodiment 8); conditions: for pest or weed control at 500 µg/g: Oryza sativa, read-out: Rice Sheath Blight Disease Average inhibition rate (%)
Method: as §1, §2

[2] = tested on: Cucumber Angular Leaf Spot; assay: Microbicidal activity on cucumber seedlings, spray then inoculation (Embodiment 8); conditions: for pest or weed control at 500 µg/g: Cucumis sativus, read-out: Cucumber Angular Leaf Spot Average inhibition rate (%); for Cucumber Angular Leaf Spot Average inhibition rate (%): testing concentration of 500 μg/g
Method: as §1, §2

[3] = tested on: Corynespora Leaf Spot of Cucumber; assay: Microbicidal activity on cucumber seedlings, spray then spore inoculation (Embodiment 8); conditions: for pest or weed control at 500 µg/g: Corynespora, in Cucumis sativus, read-out: Corynespora Leaf Spot of Cucumber Average inhibition rate (%)
Method: as §1, §2

[4] = tested on: Cucumber Angular Leaf Spot; assay: Microbicidal activity on cucumber seedlings, spray then inoculation (Embodiment 7); conditions: for pest or weed control at 500 µg/g: Cucumis sativus, read-out: Cucumber bacterial spot (%), controlling effect; for Cucumber bacterial spot (%), controlling effect: testing concentration of 500 μg/g, cucumber seedling
Method: Testing Materials: Strain: Cucumber Angular Leaf Spot
Testing method: a cucumber seedling at the stage of 2 seminal leaves was inoculated by spraying a suspension of Cucumber Angular Leaf Spot. Testing agents and control agents were sprayed uniformly on the seminal leaves at A.M. of a sunshine day respectively. After 2 hours, the leaves were inoculated with pathogenic microbes and cultured at humidity. After full occurrence of disease in control group, state of illness was examined according to grading standards, and the controlling effects were measured.

anthracnose of cucumber = assay: Spawn growth rate on agar plates (Embodiment 9); format: cell-based, GloeosporiumorbiculareArs; conditions: 48 h; testing concentration of 100 μg/g; Table 5
wheat scab = assay: microbe, parasite or virus in culture; format: cell-based, Gibberella zeae; conditions: 48 h, read-out: Wheat scab Average inhibition rate (%)
early blight of tomato = assay: Spawn growth rate on agar plates (Embodiment 9); format: cell-based, Alternaria solania; conditions: 48 h, testing concentration of 100 μg/g
[5] = tested on: Rice Sheath Blight Disease (sheath and culm blight of rice); assay: Spawn growth rate on agar plates (Embodiment 9); format: cell-based, Rhizoctonia solani; conditions: 48 h
[6] = testing concentration of 500 μg/g
[7] = Concentration 12.5 μg/g, Table 8

Compound | melting point | inhibition of growth at 100 µg/g (gray mold of cucumber; Table 4) | inhibition of growth at 100 µg/g (tobacco brown spot) | pest or weed control at 500 µg/g (Downy Mildew of Cucumber) | pest or weed control at 500 µg/g [1] | pest or weed control at 500 µg/g [2] | pest or weed control at 500 µg/g [3] | pest or weed control at 500 µg/g [4] | inhibition of growth at 100 µg/g (anthracnose of cucumber) | inhibition of growth at 100 µg/g (wheat scab) | other results
Cc1ccc(Cl)c(OCc2cn(Cc3cnc(C)nc3N)nn2)c1 [Compound 5] | 184 to 185 °C | 67% | 56% | 70% | 80% | 50% | 70% | – | – | – | –
Cc1ncc(Cn2cc(COC(=O)c3cccc(Cl)c3)nn2)c(N)n1 [Compound 39] | 165 to 166 °C | 84% | 50% | – | 60% | 10% | – | 60% | 52% | – | –
Cc1ncc(Cn2cc(COC(=O)c3ccc(F)cc3)nn2)c(N)n1 [Compound 34] | 198 to 199 °C | 63% | – | – | 40% | – | – | 60% | – | 51% | –
S=c1[nH]nc(NCNc2n[nH]c(=S)s2)s1 [Bismerthiazol, reference compound] | – | – | – | – | – | – | – | – | – | – | Cucumber bacterial spot (%), controlling effect [4]: 73.14%; Cucumber Angular Leaf Spot Average inhibition rate (%) [2]: 73%
Cc1ncc(Cn2cc(COC(=O)c3cc([N+](=O)[O-])cc([N+](=O)[O-])c3)nn2)c(N)n1 [Compound 35] | 142 to 143 °C | 49% | 75% | – | 50% | 80% | – | 45% | 50% | – | –
Cc1ncc(Cn2cc(COC(=O)c3ccc(Cl)cc3)nn2)c(N)n1 [Compound 33] | 188 to 189 °C | 61% | – | – | 55% | – | – | 60% | – | 55% | –
Cc1ncc(Cn2cc(COC(=O)c3ccc([N+](=O)[O-])cc3)nn2)c(N)n1 [Compound 32] | – | 59% | 87% | – | 60% | – | – | 60% | 67% | – | inhibition of growth at 100 µg/g (early blight of tomato; Table 5): 63%
Cc1ncc(Cn2cc(COc3cccc(C)c3C)nn2)c(N)n1 [Compound 14] | 202 to 204 °C | 54% | 60% | 35% | 70% | 60% | 90% | – | – | – | –
Cc1ncc(Cn2cc(COc3ccc([N+](=O)[O-])cc3Cl)nn2)c(N)n1 [Compound 15] | 194 to 196 °C | 44% | – | 30% | 60% | 60% | 80% | – | 57% | – | –
Cc1ncc(Cn2cc(COc3ccc(Cl)cc3)nn2)c(N)n1 [Compound 2] | 168 to 170 °C | 73% | 52% | 75% | 80% | 60% | 55% | – | 50% | 51% | –
Cc1ncc(Cn2cc(COc3ccc(C(=O)O)cc3)nn2)c(N)n1 [Compound 7] | > 260 °C | 67% | 57% | 40% | 70% | 55% | 70% | – | – | – | –
Cc1ncc(Cn2cc(COc3ccc(Cl)cc3Cl)nn2)c(N)n1 [Compound 10] | 175 to 177 °C | 56% | 58% | 50% | 70% | 60% | 70% | – | 64% | – | –
Zhongshengmycin [reference compound] | – | – | – | – | – | – | – | – | – | – | Cucumber bacterial spot (%), controlling effect [4]: 70.69%; Downy Mildew of Cucumber Average inhibition rate (%) (Downy Mildew of Cucumber; [6]): 40%; Rice Sheath Blight Disease Average inhibition rate (%) [1, 6]: 50%; Cucumber Angular Leaf Spot Average inhibition rate (%) [2]: 70%; Corynespora Leaf Spot of Cucumber Average inhibition rate (%) [3, 6]: 50%
Nc1nnc([S-])s1.Nc1nnc([S-])s1.[Cu+2] [Thiodiazole-copper, reference compound] | – | – | – | – | – | – | – | – | – | – | Cucumber bacterial spot (%), controlling effect [4]: 65.89%; Cucumber Angular Leaf Spot Average inhibition rate (%) [2]: 66%
Cc1ccc(C(=O)OCc2cn(Cc3cnc(C)nc3N)nn2)cc1 [Compound 38] | 202 to 203 °C | 61% | – | – | 50% | 40% | – | 60% | 54% | 56% | –
Cc1ncc(Cn2cc(COc3cccc(C(F)(F)F)c3)nn2)c(N)n1 [Compound 4] | 160 to 161 °C | 77% | 66% | 35% | 60% | 60% | 70% | – | 65% | – | inhibition of growth at 100 µg/g (early blight of tomato; Table 5): 51%
Cc1ncc(Cn2cc(COC(=O)c3ccccc3F)nn2)c(N)n1 [Compound 37] | 124 to 125 °C | 98% | – | – | 50% | 37% | – | 70% | – | 51% | –
Cc1ncc(Cn2nnc(COc3ccc(F)cc3Cl)c2I)c(N)n1 [Compound 27] | 187 to 189 °C | – | – | – | – | – | – | – | – | 39% | inhibition of growth at 12.5 µg/g (gray mold of cucumber; [7]): 59%; inhibition of growth at 25 µg/g (gray mold of cucumber; Concentration 25 μg/g, Table 8): 66%; inhibition of growth at 50 µg/g (gray mold of cucumber; Concentration 50 μg/g, Table 8): 92%; inhibition of growth at 100 µg/g (gray mold of cucumber; Table 6): 99%; inhibition of growth at 12.5 µg/g [5, 7]: 0%; inhibition of growth at 25 µg/g ([5]; Concentration 25 μg/g, Table 8): 37%; inhibition of growth at 50 µg/g ([5]; Concentration 50 μg/g, Table 8): 72%; inhibition of growth at 100 µg/g ([5]; testing concentration of 100 μg/g, Table 6, read-out: Sheath and culm blight of rice Average inhibition rate (%)): 94%; inhibition of growth at 100 µg/g (early blight of tomato; Table 6): 38%
Cc1ncc(Cn2cc(COC(=O)c3ccccc3Cl)nn2)c(N)n1 [Compound 36] | 85 to 87 °C | 61% | – | – | 45% | 60% | – | 60% | – | – | –

From patent US8865724B2, “Preparation of 2-methyl-4-amino-5(substituted-1H-1,2,3-triazolyl)methylpyrimidine derivatives and microbicidal activity thereof” (Central China Normal University, priority 2011, dated 2014)
